Data on 20 compounds can be found in patent publication US11512090B2, “Muscarinic acetylcholine M1 receptor antagonists” (PIPELINE THERAPEUTICS, INC., priority 2018, dated 2022).

Holding throughout (assay type): cell-based
In assay [1] the target is T1, human M1 receptor (Homo sapiens, UniProt P11229).
T1 sequence (P11229 1-460): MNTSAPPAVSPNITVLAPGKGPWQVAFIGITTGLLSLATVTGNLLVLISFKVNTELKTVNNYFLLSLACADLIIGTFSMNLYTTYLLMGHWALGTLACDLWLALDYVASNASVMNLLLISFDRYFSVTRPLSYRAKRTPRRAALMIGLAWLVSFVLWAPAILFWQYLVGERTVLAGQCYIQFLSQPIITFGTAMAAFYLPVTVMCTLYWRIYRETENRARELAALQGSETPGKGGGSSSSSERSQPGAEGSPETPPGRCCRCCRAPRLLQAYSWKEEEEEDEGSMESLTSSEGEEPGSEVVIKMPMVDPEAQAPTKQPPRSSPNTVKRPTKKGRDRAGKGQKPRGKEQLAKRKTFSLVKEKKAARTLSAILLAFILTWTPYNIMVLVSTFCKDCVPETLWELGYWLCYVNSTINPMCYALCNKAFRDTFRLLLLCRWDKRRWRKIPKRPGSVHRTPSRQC
Nature of the assay: In vitro functional assay of muscarinic acetylcholine receptor activity (aequorin calcium flux, antagonist mode vs EC80 acetylcholine), M1. The essentials: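 Antagonism at M1 was measured as a concentration-dependent reduction of the EC80 acetylcholine-evoked aequorin luminescence, from which IC50 was derived. Human M1 CHO-K1 aequorin cells were first loaded with 5 uM coelenterazine h for 4 h and exposed to compound for 30 min at room temperature.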
(Calcium assays in cells follow changes in intracellular calcium, usually with a dye or a luminescent sensor.)

For assay [2], the target named is T2, M2 (Homo sapiens, UniProt P08172).
T2 sequence (P08172 1-466): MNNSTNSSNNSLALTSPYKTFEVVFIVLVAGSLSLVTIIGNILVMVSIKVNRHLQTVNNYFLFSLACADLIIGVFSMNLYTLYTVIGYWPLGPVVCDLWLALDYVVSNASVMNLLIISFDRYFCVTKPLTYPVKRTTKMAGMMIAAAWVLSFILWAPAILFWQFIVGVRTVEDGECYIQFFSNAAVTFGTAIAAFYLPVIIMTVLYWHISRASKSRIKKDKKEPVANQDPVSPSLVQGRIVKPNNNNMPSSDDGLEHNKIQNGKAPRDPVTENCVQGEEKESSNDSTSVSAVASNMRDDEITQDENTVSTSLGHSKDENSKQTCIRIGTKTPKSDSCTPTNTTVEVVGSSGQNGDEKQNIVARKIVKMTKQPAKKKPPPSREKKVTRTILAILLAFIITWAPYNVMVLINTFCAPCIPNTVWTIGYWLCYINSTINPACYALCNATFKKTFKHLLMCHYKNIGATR
Nature of the assay: In vitro functional assay of muscarinic acetylcholine receptor activity, M2.

The target of assay [3] is M3 (Homo sapiens, UniProt P20309). Nature of the assay: In vitro functional assay of muscarinic acetylcholine receptor activity, M3. The conditions noted are these: antagonist IC50 at M3; read-out: M3 IC50.
Sequence of M3 (P20309 whole entry): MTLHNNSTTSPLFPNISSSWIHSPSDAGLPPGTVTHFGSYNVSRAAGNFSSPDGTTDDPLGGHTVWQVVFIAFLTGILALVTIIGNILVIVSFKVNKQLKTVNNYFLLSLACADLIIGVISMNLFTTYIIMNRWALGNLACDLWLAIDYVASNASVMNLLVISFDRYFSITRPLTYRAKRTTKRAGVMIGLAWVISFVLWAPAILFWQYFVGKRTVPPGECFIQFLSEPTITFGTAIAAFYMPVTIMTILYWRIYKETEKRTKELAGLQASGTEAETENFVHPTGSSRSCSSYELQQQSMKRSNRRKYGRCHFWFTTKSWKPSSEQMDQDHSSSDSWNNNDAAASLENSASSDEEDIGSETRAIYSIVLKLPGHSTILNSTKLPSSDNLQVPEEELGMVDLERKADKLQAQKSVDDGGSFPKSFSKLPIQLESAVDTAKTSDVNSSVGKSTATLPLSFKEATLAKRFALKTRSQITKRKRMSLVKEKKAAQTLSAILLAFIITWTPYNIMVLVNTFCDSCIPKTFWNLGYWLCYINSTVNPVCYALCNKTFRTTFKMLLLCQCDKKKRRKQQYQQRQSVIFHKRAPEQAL
Setting [4] is: antagonist IC50 at M2, read-out: M2 IC50.
Where [5] appears, read: CHO-K1 cells stably expressing human M1 receptor with Aequorin, decrease in EC80 acetylcholine response, read-out: M1 IC50.

Like-named read-outs stand apart in the source and are kept apart here.

A word on the IC50: it is the concentration that inhibits the measured activity by half. On to `O=C(CCNCc1cccc2ncnn12)N1CC2CCC(C1)N2c1ccc(Cl)cn1` [Example 157, 1-[8-(5-chloropyridin-2-yl)-3,8-diazabicyclo[3.2.1]octan-3-yl]-3-[({[1,2,4]triazolo[1,5-a]pyridin-5-yl}methyl)amino]propan-1-one], for which the IC50 in assay [1] is less than 100 nM; in assay [2] (setting [4]), greater than 10000 nM; in assay [3] it was greater than 10000 nM.
`N#Cc1ccc(N2C3CCC2CN(C(=O)C(F)(F)CNCc2cccc4ncsc24)C3)nc1` [Example 158, 6-[3-(3-{[(1,3-benzothiazol-7-yl)methyl]amino}-2,2-difluoropropanoyl)-3,8-diazabicyclo[3.2.1]octan-8-yl]pyridine-3-carbonitrile]: the IC50 is 100 to 1000 nM in assay [1], 100 to 1000 nM in assay [2] and 1000 to 10000 nM in assay [3].
On to `N#Cc1cc(N2C3CCC2CN(C(=O)CCNCc2cccc4ncsc24)C3)ccn1` [Example 159, 4-[3-(3-{[(1,3-benzothiazol-7-yl)methyl]amino}propanoyl)-3,8-diazabicyclo[3.2.1]octan-8-yl]pyridine-2-carbonitrile], for which the IC50 in assay [1] is less than 100 nM; in assay [2] (setting [4]) it was 1000 to 10000 nM; in assay [3], greater than 10000 nM.
As to `N#Cc1ccc(N2CC3CCC(C2)N3C(=O)CCNCc2cccc3ncsc23)nc1` [Example 160, 6-[8-(3-{[(1,3-benzothiazol-7-yl)methyl]amino}propanoyl)-3,8-diazabicyclo[3.2.1]octan-3-yl]pyridine-3-carbonitrile], the IC50 in assay [1] is 100 to 1000 nM; in assay [2] (setting [4]), 1000 to 10000 nM; in assay [3], greater than 10000 nM.
Taken in the same sequence, the figures for `Cc1cc(C#N)cnc1N1CC2CCC(C1)N2C(=O)CCNCc1cccc2ncsc12` [Example 161, 6-[8-(3-{[(1,3-benzothiazol-7-yl)methyl]amino}propanoyl)-3,8-diazabicyclo[3.2.1]octan-3-yl]-5-methylpyridine-3-carbonitrile] were 100 to 1000 nM, 1000 to 10000 nM and greater than 10000 nM.
`N#Cc1ccc(N2CC3CCC2CN3C(=O)CCNCc2cccc3ncsc23)nc1` (stereo not drawn) [Example 162, 6-[5-(3-{[(1,3-benzothiazol-7-yl)methyl]amino}propanoyl)-2,5-diazabicyclo[2.2.2]octan-2-yl]pyridine-3-carbonitrile]: the IC50 in assay [1] (setting [5]) is 100 to 1000 nM; in assay [2] (setting [4]), 1000 to 10000 nM; in assay [3], 1000 to 10000 nM.
Take `O=C(CCNCc1cccn2nccc12)N1CC2CCC(C1)N2c1ccc(Cl)cn1` [Example 163, 1-[8-(5-chloropyridin-2-yl)-3,8-diazabicyclo[3.2.1]octan-3-yl]-3-[({pyrazolo[1,5-a]pyridin-4-yl}methyl)amino]propan-1-one]: the figures for the IC50 in assay [1], in assay [2] (setting [4]) and in assay [3] were 100 to 1000 nM, 1000 to 10000 nM and greater than 10000 nM, respectively.
Taken in the same sequence, the figures for `N#Cc1ccc(N2C3CCC2CN(C(=O)CCN(Cc2cccc4ncnn24)C2CC2)C3)nc1` [Example 164, 6-(3-{3-[cyclopropyl({[1,2,4]triazolo[1,5-a]pyridin-5-yl}methyl)amino]propanoyl}-3,8-diazabicyclo[3.2.1]octan-8-yl)pyridine-3-carbonitrile] were less than 100 nM, 1000 to 10000 nM and 1000 to 10000 nM.
In the case of `N#Cc1ccc(N2C3CCC2CN(C(=O)CCNCc2cccn4nccc24)C3)nc1` [Example 165, 6-(3-{3-[({pyrazolo[1,5-a]pyridin-4-yl}methyl)amino]propanoyl}-3,8-diazabicyclo[3.2.1]octan-8-yl)pyridine-3-carbonitrile], the 50% inhibitory concentration (IC50) was in the range of 100 to 1000 nM in assay [1], 1000 to 10000 nM in assay [2] (setting [4]) and 1000 to 10000 nM in assay [3].
For `N#Cc1ccc(N2C3CCC2CN(C(=O)CNCCc2cccc4ncsc24)C3)nc1` [Example 166, 6-[3-(2-{[2-(1,3-benzothiazol-7-yl)ethyl]amino}acetyl)-3,8-diazabicyclo[3.2.1]octan-8-yl]pyridine-3-carbonitrile], the IC50 in assay [1] lay in the range of 100 to 1000 nM; in assay [2] (setting [4]) it was 1000 to 10000 nM; in assay [3], 1000 to 10000 nM.
On to `O=C(CCNCc1c(F)ccc2nccn12)N1CC2CCC(C1)N2c1ccc(Cl)cn1` [Example 167, 1-[8-(5-chloropyridin-2-yl)-3,8-diazabicyclo[3.2.1]octan-3-yl]-3-[({6-fluoroimidazo[1,2-a]pyridin-5-yl}methyl)amino]propan-1-one], for which the values for the IC50 in assay [1], in assay [2] (setting [4]) and in assay [3] were less than 100 nM, 1000 to 10000 nM and greater than 10000 nM, respectively.
Taken in the same sequence, the figures for `Cc1nc2cccc(CNCCC(=O)N3CC4CCC(C3)N4c3ccc(C#N)cn3)n2n1` [Example 168, 6-(3-{3-[({2-methyl-[1,2,4]triazolo[1,5-a]pyridin-5-yl}methyl)amino]propanoyl}-3,8-diazabicyclo[3.2.1]octan-8-yl)pyridine-3-carbonitrile] were 100 to 1000 nM, 1000 to 10000 nM and greater than 10000 nM.
Turning to `CN(CCC(=O)N1CC2CCC(C1)N2c1ccc(C#N)cn1)Cc1cccc2ncsc12` [Example 169, 6-[3-(3-{[(1,3-benzothiazol-7-yl)methyl](methyl)amino}propanoyl)-3,8-diazabicyclo[3.2.1]octan-8-yl]pyridine-3-carbonitrile], the 50% inhibitory concentration (IC50) in assay [1] is 100 to 1000 nM; in assay [2], 100 to 1000 nM; in assay [3], 1000 to 10000 nM.
With `CN(CCC(=O)N1CC2CCC(C1)N2c1ccc(C#N)cn1)Cc1cccc2ncnn12` [Example 170, 6-(3-{3-[methyl({[1,2,4]triazolo[1,5-a]pyridin-5-yl}methyl)amino]propanoyl}-3,8-diazabicyclo[3.2.1]octan-8-yl)pyridine-3-carbonitrile], the IC50 lay within 100 to 1000 nM in assay [1], 1000 to 10000 nM in assay [2] (setting [4]) and 1000 to 10000 nM in assay [3].
As to `N#Cc1ccc(N2C3CCC2CN(C(=O)CCNCc2cccc4ncnn24)C3)cc1` [Example 171, 4-(3-{3-[({[1,2,4]triazolo[1,5-a]pyridin-5-yl}methyl)amino]propanoyl}-3,8-diazabicyclo[3.2.1]octan-8-yl)benzonitrile], the IC50 was 100 to 1000 nM in assay [1], greater than 10000 nM in assay [2] (setting [4]) and greater than 10000 nM in assay [3].
`O=C(CCNCc1c(F)ccc2nccn12)N1CC2CCC(C1)N2c1ccc(C2CC2)cn1` [Example 172, 1-[8-(5-cyclopropylpyridin-2-yl)-3,8-diazabicyclo[3.2.1]octan-3-yl]-3-[({6-fluoroimidazo[1,2-a]pyridin-5-yl}methyl)amino]propan-1-one]: the IC50 was 1000 to 10000 nM in assay [1] (setting [5]), 1000 to 10000 nM in assay [2] (setting [4]) and greater than 10000 nM in assay [3].
With `Cc1ccc2ncnn2c1CNCCC(=O)N1CC2CCC(C1)N2c1ccc(C#N)cn1` [Example 173, 6-(3-{3-[({6-methyl-[1,2,4]triazolo[1,5-a]pyridin-5-yl}methyl)amino]propanoyl}-3,8-diazabicyclo[3.2.1]octan-8-yl)pyridine-3-carbonitrile], the values for the IC50 in assay [1], in assay [2] (setting [4]) and in assay [3] were 100 to 1000 nM, greater than 10000 nM and greater than 10000 nM, respectively.
On to `N#Cc1ccc(N2C3CCC2CN(C(=O)CCN(Cc2cccc4ncnn24)C2COC2)C3)nc1` [Example 174, 6-(3-{3-[(oxetan-3-yl)({[1,2,4]triazolo[1,5-a]pyridin-5-yl}methyl)amino]propanoyl}-3,8-diazabicyclo[3.2.1]octan-8-yl)pyridine-3-carbonitrile], for which the IC50 is 100 to 1000 nM in assay [1], greater than 10000 nM in assay [2] (setting [4]) and greater than 10000 nM in assay [3].
As for `N#Cc1ccc(-c2ccc(N3C4CCC3CN(C(=O)CCNCc3cccc5ncnn35)C4)cc2)nc1` [Example 175, 6-[4-(3-{3-[({[1,2,4]triazolo[1,5-a]pyridin-5-yl}methyl)amino]propanoyl}-3,8-diazabicyclo[3.2.1]octan-8-yl)phenyl]pyridine-3-carbonitrile], the 50% inhibitory concentration (IC50) is 100 to 1000 nM in assay [1], 1000 to 10000 nM in assay [2] (setting [4]) and greater than 10000 nM in assay [3].
As to `Cc1ccc(COCCC(=O)N2CC3CCC(C2)N3c2ccc(C#N)cn2)c2cccnc12` [Example 176, 6-(3-{3-[(8-methylquinolin-5-yl)methoxy]propanoyl}-3,8-diazabicyclo[3.2.1]octan-8-yl)pyridine-3-carbonitrile], the IC50 in assay [1] is 100 to 1000 nM; in assay [2] (setting [4]), 1000 to 10000 nM; in assay [3] it was greater than 10000 nM.
